Values quoted from earlier work in patent publication US20220331292A1, “COMPOSITIONS AND METHODS FOR DELIVERY OF PSILOCIN AND PRODRUGS THEREOF” (priority 2021, published 2022).

Experiments:
[1] = not given; remark: listed apart in the source
[2] = biological target: 5-HT2a serotonin receptor (Homo sapiens, UniProt P28223)
[3] = psilocin after escalating doses of psilocybin

Sequence of 5-HT2a serotonin receptor (P28223 whole entry): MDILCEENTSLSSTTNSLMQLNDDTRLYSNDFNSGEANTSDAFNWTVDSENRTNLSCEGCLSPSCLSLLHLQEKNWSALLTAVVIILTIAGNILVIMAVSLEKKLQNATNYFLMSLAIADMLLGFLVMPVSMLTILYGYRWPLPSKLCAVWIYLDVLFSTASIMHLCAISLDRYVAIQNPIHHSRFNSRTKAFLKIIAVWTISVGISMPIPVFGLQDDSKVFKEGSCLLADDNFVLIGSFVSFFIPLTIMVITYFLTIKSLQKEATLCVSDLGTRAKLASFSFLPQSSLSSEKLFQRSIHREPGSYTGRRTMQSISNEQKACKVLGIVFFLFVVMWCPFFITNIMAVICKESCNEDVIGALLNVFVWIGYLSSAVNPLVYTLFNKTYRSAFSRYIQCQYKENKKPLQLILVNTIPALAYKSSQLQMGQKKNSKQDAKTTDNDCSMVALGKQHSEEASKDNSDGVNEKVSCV

CN(C)CCc1c[nH]c2cccc(OP(=O)(O)O)c12 [Psilocybin, psilocybin]
serious physical or psychological events (oral 0.3, 0.45 and 0.6 mg/kg at monthly intervals, during or within 30 days of any dose): no serious physical or psychological events
share of metabolized psilocybin excreted in the urine as psilocin-O-glucuronide [1]: About 80%

CN(C)CCc1c[nH]c2cccc(O)c12 [Psilocin, psilocin]
half-life [3]: three
pharmacokinetics (linearity) [3]: linear
binding affinity with 5-HT2a [2]: high binding affinity
